# Legend:
# Assay in all cases: combination Emax (second highest fraction inhibited in the dose matrix, 72 h); higher = more inhibition; extreme values may be limits of the assay
# [1] = tested on: 23132-87 (Gastric Carcinoma)
# Summary of the method: (§1)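 Cell lines grown in DMEM/F12 or RPMI with 10% FBS were plated in 1536-well plates and held 24 hours at 37°C, 5% CO2 before 72 hours of exposure to two-drug dose matrices, with DMSO typically at 0.2%. CellTiter-Glo 2.0 luminescence gave viability, which was converted to inhibition. Vehicle wells were set to 0 and blank wells to 1. Combination Emax is the second-highest inhibition in the matrix, and Bliss excess is the observed combination effect minus the expected EA + EB − EA·EB, where EA and EB are the single-agent effects.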
# A2058 (Melanoma) = tested on: A2058 (Melanoma)
# Summary of the method: as §1
# [2] = tested on: CAL-62 (Thyroid Gland Carcinoma)
# Summary of the method: as §1
# [3] = tested on: COLO-680N (Esophageal Squamous Cell Carcinoma)
# Summary of the method: as §1
# [4] = tested on: FADU (Head and Neck Carcinoma)
# Summary of the method: as §1
# GB-1 (Glioblastoma) = tested on: GB-1 (Glioblastoma)
# Summary of the method: as §1
# [5] = tested on: HSC-39 (Gastric Carcinoma)
# Summary of the method: as §1
# [6] = tested on: KE-37 (T-Lymphoblastic Leukemia)
# Summary of the method: as §1
# [7] = tested on: L-1236 (Hodgkin's Lymphoma)
# Summary of the method: as §1
# LN-229 (Glioblastoma) = tested on: LN-229 (Glioblastoma)
# Summary of the method: as §1
# [8] = tested on: MFE-280 (Endometrial Carcinoma)
# Summary of the method: as §1
# [9] = tested on: NCI-H23 (Lung Adenocarcinoma)
# Summary of the method: as §1
# [10] = tested on: NCI-H2342 (Lung Adenocarcinoma)
# Summary of the method: as §1
# [11] = tested on: PC-3_[JPC-3] (Lung Adenocarcinoma)
# Summary of the method: as §1
# [12] = tested on: REH (B-Lymphoblastic Leukemia)
# Summary of the method: as §1
# [13] = tested on: RERF-GC-1B (Gastric Carcinoma)
# Summary of the method: as §1
# SF268 (Low Grade Glioma) = tested on: SF268 (Low Grade Glioma)
# Summary of the method: as §1
# [14] = tested on: SU-DHL-10 (B-Cell Non-Hodgkin's Lymphoma)
# Summary of the method: as §1
# [15] = tested on: TE-8 (Esophageal Squamous Cell Carcinoma)
# Summary of the method: as §1
# WM278 (Melanoma) = tested on: WM278 (Melanoma)
# Summary of the method: as §1
smiles,measurement,setting,value
"CN(CCO)CC[C@H](CSc1ccccc1)Nc1ccc(S(=O)(=O)NC(=O)c2ccc(N3CCC([C@@H](O)c4ccccc4-c4ccc(Cl)cc4)CC3)cc2)cc1S(=O)(=O)C(F)(F)F [AZD4320] + CN(C)CCCOc1ccc(-c2ccc3ncc4c(c3c2)n(C2CCOCC2)c(=O)n4C)cn1 [AZD0156] (first compound max 1 µM, 7x7, partner max 1 µM)",combination Emax,[1],0.148
same,combination Emax,A2058 (Melanoma),0.103
same,combination Emax,[2],0.228
same,combination Emax,[3],0.137
same,combination Emax,[4],0.124
same,combination Emax,GB-1 (Glioblastoma),0.0923
same,combination Emax,[5],0.279
same,combination Emax,[6],1
same,combination Emax,[7],0.992
same,combination Emax,LN-229 (Glioblastoma),0.142
same,combination Emax,[8],0.891
same,combination Emax,[9],0.104
same,combination Emax,[10],0.27
same,combination Emax,[11],0.238
same,combination Emax,[12],1
same,combination Emax,[13],0.379
same,combination Emax,SF268 (Low Grade Glioma),0.291
same,combination Emax,[14],0.144
same,combination Emax,[15],0.181
same,combination Emax,WM278 (Melanoma),0.568
"CN(CCO)CC[C@H](CSc1ccccc1)Nc1ccc(S(=O)(=O)NC(=O)c2ccc(N3CCC([C@@H](O)c4ccccc4-c4ccc(Cl)cc4)CC3)cc2)cc1S(=O)(=O)C(F)(F)F [AZD4320] + C[C@@H]1COCCN1C2=NC(=NC(=C2)C3(CC3)[S@](=N)(=O)C)C4=C5C=CNC5=NC=C4 [AZD6738] (first compound max 1 µM, 7x7, partner max 10 µM)",combination Emax,[1],0.84
same,combination Emax,A2058 (Melanoma),0.782
same,combination Emax,[2],0.936
same,combination Emax,[3],0.346
same,combination Emax,[4],0.583
same,combination Emax,GB-1 (Glioblastoma),0.55
same,combination Emax,[5],1
same,combination Emax,[6],1
same,combination Emax,[7],0.992
same,combination Emax,LN-229 (Glioblastoma),0.797
same,combination Emax,[8],0.88
same,combination Emax,[9],0.85
same,combination Emax,[10],0.377
same,combination Emax,[11],0.375
same,combination Emax,[12],1
same,combination Emax,[13],0.621
same,combination Emax,SF268 (Low Grade Glioma),0.78
same,combination Emax,[14],0.899
same,combination Emax,[15],0.799
same,combination Emax,WM278 (Melanoma),0.789
"CN(CCO)CC[C@H](CSc1ccccc1)Nc1ccc(S(=O)(=O)NC(=O)c2ccc(N3CCC([C@@H](O)c4ccccc4-c4ccc(Cl)cc4)CC3)cc2)cc1S(=O)(=O)C(F)(F)F [AZD4320] + C[C@@H](Nc1cc(F)cc(F)c1)c1cc(C(=O)N(C)C)cc2c(=O)cc(N3CCOCC3)oc12 [AZD8186] (first compound max 1 µM, 7x7, partner max 3 µM)",combination Emax,[1],0.74
same,combination Emax,A2058 (Melanoma),0.765
same,combination Emax,[2],0.925
same,combination Emax,[3],0.243
same,combination Emax,[4],0.846
same,combination Emax,GB-1 (Glioblastoma),0.548
same,combination Emax,[5],0.62
same,combination Emax,[6],1
same,combination Emax,[7],0.981
same,combination Emax,LN-229 (Glioblastoma),0.389
same,combination Emax,[8],0.864
same,combination Emax,[9],0.335
same,combination Emax,[10],0.443
same,combination Emax,[11],0.562
same,combination Emax,[12],1
same,combination Emax,[13],0.549
same,combination Emax,SF268 (Low Grade Glioma),0.66
same,combination Emax,[14],0.81
same,combination Emax,[15],0.463
same,combination Emax,WM278 (Melanoma),0.85
"CN(CCO)CC[C@H](CSc1ccccc1)Nc1ccc(S(=O)(=O)NC(=O)c2ccc(N3CCC([C@@H](O)c4ccccc4-c4ccc(Cl)cc4)CC3)cc2)cc1S(=O)(=O)C(F)(F)F [AZD4320] + Cc1cc2ncnn2cc1Nc1ncc2c(n1)n(C1CCOCC1)c(=O)n2C [AZD7648] (first compound max 1 µM, 7x7, partner max 10 µM)",combination Emax,[1],0.2
same,combination Emax,A2058 (Melanoma),0.0867
same,combination Emax,[2],0.26
same,combination Emax,[3],0.0933
same,combination Emax,[4],0.12
same,combination Emax,GB-1 (Glioblastoma),0.17
same,combination Emax,[5],0.367
same,combination Emax,[6],1
same,combination Emax,[7],0.958
same,combination Emax,LN-229 (Glioblastoma),0.0793
same,combination Emax,[8],0.774
same,combination Emax,[9],0.156
same,combination Emax,[10],0.27
same,combination Emax,[11],0.243
same,combination Emax,[12],1
same,combination Emax,[13],0.344
same,combination Emax,SF268 (Low Grade Glioma),0.164
same,combination Emax,[14],0.474
same,combination Emax,[15],0.193
same,combination Emax,WM278 (Melanoma),0.555
"COc1nnc2ccc(N3CCC(c4ccc(OCCN5CCN(C)C(=O)[C@H]5C)cc4)CC3)nn12 [AZD5153] + C=CCn1c(=O)c2cnc(Nc3ccc(N4CCN(C)CC4)cc3)nc2n1-c1cccc(C(C)(C)O)n1 [AZD1775] (first compound max 1 µM, partner max 1 µM)",combination Emax,[1],0.636
same,combination Emax,A2058 (Melanoma),0.8
same,combination Emax,[2],0.79
same,combination Emax,[3],0.353
same,combination Emax,[4],0.592
same,combination Emax,GB-1 (Glioblastoma),0.641
same,combination Emax,[5],0.967
same,combination Emax,[6],0.978
same,combination Emax,[7],0.999
same,combination Emax,LN-229 (Glioblastoma),0.431
same,combination Emax,[8],0.383
same,combination Emax,[9],0.963
same,combination Emax,[10],0.711
same,combination Emax,[11],0.58
same,combination Emax,[12],0.926
same,combination Emax,[13],0.77
same,combination Emax,SF268 (Low Grade Glioma),0.637
same,combination Emax,[14],1
same,combination Emax,[15],0.654
same,combination Emax,WM278 (Melanoma),0.581
"COc1nnc2ccc(N3CCC(c4ccc(OCCN5CCN(C)C(=O)[C@H]5C)cc4)CC3)nn12 [AZD5153] + CC1(C)CCC(CN2CCN(c3ccc(C(=O)NS(=O)(=O)c4ccc(NCC5CCOCC5)c([N+](=O)[O-])c4)c(Oc4cnc5[nH]ccc5c4)c3)CC2)=C(c2ccc(Cl)cc2)C1 [Venetoclax] (first compound max 1 µM, 7x7, partner max 1 µM)",combination Emax,[1],0.141
same,combination Emax,A2058 (Melanoma),0.432
same,combination Emax,[2],0.753
same,combination Emax,[3],0.344
same,combination Emax,[4],0.521
same,combination Emax,GB-1 (Glioblastoma),0.256
same,combination Emax,[5],0.676
same,combination Emax,[6],0.7
same,combination Emax,[7],0.997
same,combination Emax,LN-229 (Glioblastoma),0.309
same,combination Emax,[8],0.38
same,combination Emax,[9],0.651
same,combination Emax,[10],0.315
same,combination Emax,[11],0.364
same,combination Emax,[12],0.911
same,combination Emax,[13],0.702
same,combination Emax,SF268 (Low Grade Glioma),0.462
same,combination Emax,[14],1
same,combination Emax,[15],0.491
same,combination Emax,WM278 (Melanoma),0.447

# Reference: the supplement of paper PMC11061612
